Assay results from EP4786454A1, “HETEROARYL DERIVATIVE AND USE THEREOF” (priority 2023, dated 2025).

Assay: Pharmacokinetic evaluation after single intravenous and gavage administration
Conditions: mouse, in vivo, CD-1 mice, IV:0.5 PO:2 mg/kg

## CC(C)(C)CC(=O)Nc1nc2c(F)cc(C#N)cn2c1C1=CCCC1 [Compound 3]
read-out: Area under the plasma concentration-time curve AUC0-last PO
  AUC(0-t): 2.35 µM·h
read-out: Bioavailability F
  bioavailability: 57.3%
read-out: Clearance CL
  clearance: 25.6 mL/min/kg
read-out: Half-life T1/2 (IV) (converted)
  half-life: 30 min
read-out: Peak concentration Cmax
  Cmax: 1150 nM
read-out: Tissue distribution Vdss
  Vd: 0.94 L/kg
